Columns and labels:
[1] = system: human lung adenocarcinoma cell A-549; assay: Growth inhibition of A-549 cells, SRB protein staining assay; type: cell-based; settings: read-out: Growth inhibition effect to A-549 cell strain
Method: (§1) The cell growth inhibition of mice leukemia cell P388 was evaluated by MTT (microculture tetrozolium) assay, while the cell growth inhibition of human lung adenocarcinoma cell A-549 was evaluated by SRB (Sulforhodamine B) protein staining assay.
The procedure of SRB assay was as follows: appropriate amount of cells in log phase were seeded in 96-well plates according to the growing rate (90 ul/well). After cultured for 24 h, cells were exposed to serial dilutions of drugs in triplicate (10 ul/well). In addition, control wells of normal saline in corresponding concentrations and zeroing wells without cell were set. The cells were incubated in 5% CO2 humidified incubator at 37° C. After 72 h, the medium was removed and cells were fixed with cold 10% trichloric acid (TCA) at 4° C. for 1 h. The plates were washed with distilled water 5 times, and stained in room temperature with 4 mg/ml SRB (Sigma, diluted with 1% glacial acetic acid, 100 ul/well) for 15 minutes after air drying. SRB was then washed with 1% acetic acid 5 times. Plates were dried, followed by adding 150 ul/well Tris solution. Absorbance was measured at […] using a multiwell spectrophotometer. The inhibition effect of the compounds in test (percentage of growth inhibition) was calculated for each well: % inhibition=(A540control cells−A540treated cells)/A540control cells×100%.
(§2) The cell lines used were mice leukemia cell P388, human leukemia cell MOLT-4, human lung adenocarcinoma cell A-549, human gastric adenocarcinoma SGC-7901, human hepatocellular carcinoma BEL-7402 and human embryonal fibroblast WI-38 (commerially available from ATCC).
(§3) The exposure time to compounds was 48 h-72 h.

DNA = DNA double strand break (further studies)
S-180 sarcoma [2] = assay: In vivo tumor growth inhibition, S-180 sarcoma in mice
Method: S-180 sarcoma developed for 7-11 days and in good growth trend was homogenated into cell suspension. The cell suspension was inoculated subcutaneously into right armpit of female KM mice (18˜22 g) (about 1.0−2.5×10^6 cells/mouse). After 24 h, the mice were grouped in random with compounds administrated by i.p. injection. From the next day on, the mice were given serial dosages. After treatment, animals were killed, and solid tumors were removed and weighed after the body weight were weighed. The inhibition rate was calculated as follows, and T-test was carried out: [(Average tumor weight of NS group−Average tumor weight of test group)/Average tumor weight of NS group]×100%.

tumor cell = assay: Tumor cell apoptosis (further studies); type: cell-based
mice leukemia cell P388 = assay: Growth inhibition of P388 cells, MTT assay; type: cell-based; settings: Mus musculus, read-out: Growth inhibition effect to P388 cell strain
Method: as §1
The procedure of MTT assay was as follows: appropriate amount of cells in log phase were seeded in 96-well plates (6000 cells/well, 15000 cells/well, 90ul/well) according to the growing rate. After cultured for 24 h, cells were exposed to serial dilutions of drugs in triplicate (10 ul/well). In addition, wells without cell, and wells without cell but with serial dilutions of drugs in case of using a colored-drug were set for zeroing. Then, the cells were cultured in 5% CO2 humidified incubator at 37° C. for 48 h. After treatment of drugs for 48 h, 20ul MTT (Sigma) which was diluted by normal saline to the concentration of 5 mg/ml was added to each well, 50ul/well 10%SDS-5% isobutanol-0.01% mol/LHCl was added after 4 h. After cultured overnight, absorbance was measured at 570 nm using a multiwell spectrophotometer. The inhibition effect of the compounds in test (percentage of growth inhibition) was calculated for each well: % inhibition=(OD570control cells−OD570treated cells)/OD570control cells×100%.
as §2, §3

[3] = Body weight and deaths of S-180 bearing mice; type: in vivo
tumor cell cycle = assay: Tumor cell cycle arrest (further studies); type: cell-based; settings: significantly dose-dependent
S-180 sarcoma [4] = assay: In vivo tumor growth inhibition, S-180 sarcoma in mice; remark: listed apart in the source
H22 hepatoma = assay: In vivo tumor inhibition, H22 hepatoma

CN(C)CCN1C(=O)c2cccc3c2c(cc2c4ccccc4sc32)C1=O [compound 16, N-(N′,N′-dimethylaminoethyl)benzo[b]thieno[2,1-c]naphthalimide]
inhibition at 100 µM ([1]; A549, 10^−4 M): 97.1% | inhibition at 10 µM ([1]; A549, 10^−5 M): 96.6% | inhibition at 1 µM ([1]; A549, 10^−6 M): 85.2% | inhibition at 0.1 µM ([1]; A549, 10^−7 M): 72.2% | inhibition at 0.01 µM ([1]; A549, 10^−8 M): 55.3% | DNA double strand break (DNA): induce the broken of DNA double strand | Weight of tumor (g) mean ± SD (S-180 sarcoma [2]; S-180 sarcoma, 12.5 mg/kg i.p): 1.14 ± 0.29 g | Tumor growth inhibition % (S-180 sarcoma [2]; S-180 sarcoma, 25 mg/kg i.p): 71.6% | Weight of tumor (g) mean ± SD (S-180 sarcoma [2]; S-180 sarcoma, 25 mg/kg i.p): 0.46 ± 0.24 g | activity against mice S180 sarcoma (in words) (S-180 sarcoma [2]; i.p. injection): active | tumor cell apoptosis (tumor cell): trigger tumor cell apoptosis | inhibition at 100 µM (mice leukemia cell P388; 10^−4 M): 100% | inhibition at 10 µM (mice leukemia cell P388; 10^−5 M): 95.9% | inhibition at 1 µM (mice leukemia cell P388; 10^−6 M): 68.2% | inhibition at 0.1 µM (mice leukemia cell P388; 10^−7 M): 21.4% | inhibition at 0.01 µM (mice leukemia cell P388; 10^−8 M): 13.8% | Weight of mice (g) Day 7 ([3]; 12.5 mg/kg i.p): 26.9 g | Weight of mice (g) Day 7 ([3]; 25 mg/kg i.p): 18.6 g | Weight of mice (g) Day 7 ([3]; 50 mg/kg i.p): 12.9 g | tumor cell cycle arrest (tumor cell cycle): arrest tumor cell cycle in G2/M phase | Tumor growth inhibition % (S-180 sarcoma [4]; 12.5 mg/kg i.p): 29.6% | Tumor growth inhibition % (S-180 sarcoma [4]; 50 mg/kg i.p): 95.6% | Weight of tumor (g) mean ± SD (S-180 sarcoma [4]; 50 mg/kg i.p): 0.08 ± 0.04 g | tumor inhibition (in words) (H22 hepatoma; 7.5 mg/kg): not active | tumor inhibition rate (H22 hepatoma; i.p. 15 mg/kg): 51.0% | tumor inhibition rate (H22 hepatoma; i.p. 30 mg/kg): 72.6%

— patent US7541463B2, “Sulfur-containing naphthalimide derivatives” (East China University of Science and Technology, priority 2003, dated 2009)
